Experimental findings from patent US7265152B2 (ViroPharma Incorporated, priority 2002, dated 2007) are described below.

For one experiment, the target named is T1, HCV NS5B (Hepatitis C virus genotype 1b, UniProt Q9WMX2).
T1 construct: fusion protein, of which the carboxyl terminal 21 amino acids were removed to enhance its solubility; His tag (GSHHHHHH); made in house; host or cells: E. coli
Nature of the experiment: Inhibition of viral RNA-dependent RNA polymerase (RdRp), in vitro biochemical assay. More on the design: species or system HCV genotype 1b virus (BB7). To be noted: read-out: HCV pol-BB7 IC50. In short, it runs like this:
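IC50 values are the concentrations that halve in vitro RNA synthesis by HCV NS5B polymerase. The enzyme was a C-terminally truncated (Δ21), His-tagged genotype 1b (BB7 consensus) protein purified from E. coli.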

Experiment [1] relates to HCV replicon (BB7 sequence) in Huh-7-Clone A cells. Nature of the experiment: HCV replicon assay: ELISA of NS5A protein in replicon-containing cells (Inhibition of Viral RNA Replication). The class given is cell-based. To be noted: Hepatitis C virus, read-out: Replicon. A digest of the protocol:
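EC50 taken from an 8-point serially diluted dose curve, with NS5A level as read-out: fixed cells probed with primary monoclonal and HRP-conjugated secondary, TMB developed 30 min, OD 650 nm. Compound exposure 72 h in Huh-7-Clone A replicon cells (BB7 sequence).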
On the technique in general: In antiviral work, replicon cells carry a viral genome segment that copies itself.

[2] abbreviates: HCV NS5B RdRp, BB7, activity class.
The mark [3] stands for this setting: HCV replicon assay, ranges of EC50.
Setting [4] is: purified His-tagged NS5B (BB7), carboxyl terminal 21 amino acids removed.
Where [5] appears, read: Huh-7-Clone A, NS5A ELISA, 72-hour incubation, ranges of EC50.
The mark [6] stands for this setting: HCV NS5B RdRp, BB7, class symbols A-D.
Where [7] appears, read: HCV NS5B RdRp, BB7, reported as range class.
Setting [8] is: ranges of EC50 in HCV replicon assay.
[9] abbreviates: HCV NS5B RdRp, BB7 (genotype 1b), reported as class symbols.

Like-named read-outs stand apart in the source and are kept apart here.

One may read the IC50 as the midpoint of a concentration-inhibition curve. For `CNC(=O)c1c(-c2ccc(F)cc2)oc2cc(N(C)S(C)(=O)=O)c(OCc3ccc(F)c(F)c3)cc12` [Example 346, 5-(3,4-Difluoro-benzyloxy)-2-(4-fluoro-phenyl)-6-(methanesulfonyl-methyl-amino)-benzofuran-3-carboxylic acid methylamide], the IC50 on HCV NS5B (setting [2]) was no more than 500 nM. The EC50 in experiment [1] (setting [3]) was less than 1000 nM.

In the case of `CNC(=O)c1c(-c2cc(F)c(F)cc2F)oc2ccc(OC)cc12` [Example 62, 5-Methoxy-2-(2,4,5-trifluoro-phenyl)-benzofuran-3-carboxylic acid methylamide], the IC50 at HCV NS5B (setting [4]) was in the range of 5000 to 30000 nM. In addition, in experiment [1] (setting [5]), the EC50 is less than 30000 nM.

With `CNC(=O)c1c(-c2ccc(F)cc2)oc2cc(N3CCOCC3)c(OCC(C)O)cc12` (stereo not shown) [Example 252, 2-(4-Fluoro-phenyl)-5-(2-hydroxy-propoxy)-6-morpholin-4-yl-benzofuran-3-carboxylic acid methylamide], the IC50 on HCV NS5B (setting [6]) was in the range of 500 to 5000 nM. Moreover, the EC50 in experiment [1] (setting [3]) is less than 10000 nM.

For `CNC(=O)c1c(-c2ccc(F)cc2)oc2cc(N3CCOCC3)c(OC(C)C#N)cc12` (stereo not shown) [Example 229, 5-(Cyano-methyl-methoxy)-2-(4-fluoro-phenyl)-6-morpholin-4-yl-benzofuran-3-carboxylic acid methylamide], on HCV NS5B (setting [7]), the IC50 is no more than 500 nM. The EC50 in experiment [1] (HCV replicon, range of EC50) is less than 10000 nM.

As for `CNC(=O)c1c(-c2ccc(F)cc2)oc2cc(-c3cc(C4CC4)no3)c(OC(C)C)cc12` [Example 241, 6-(3-Cyclopropyl-isoxazol-5-yl)-2-(4-fluoro-phenyl)-5-isopropoxy-benzofuran-3-carboxylic acid methylamide], on HCV NS5B (setting [7]), the IC50 was in the range of 500 to 5000 nM. For the same molecule, in experiment [1] (HCV replicon, range of EC50), the EC50 is less than 10000 nM.

Consider `CNC(=O)c1c(-c2cccnc2)oc2ccc(Cl)cc12` [Example 89, 5-Chloro-2-pyridin-3-yl-benzofuran-3-carboxylic acid methylamide], for which the IC50 at HCV NS5B (setting [4]) was in the range of 500 to 5000 nM. The EC50 in experiment [1] (setting [5]) is greater than 30000 nM.

In the case of `CNC(=O)c1c(-c2ccc(F)cc2)oc2cc(C3(C)CNC(=O)O3)c(OC(C)C)cc12` (stereo not shown) [Example 381, 2-(4-Fluoro-phenyl)-5-isopropoxy-6-(5-methyl-2-oxo-oxazolidin-5-yl)-benzofuran-3-carboxylic acid methylamide], the half-inhibitory concentration (IC50) on HCV NS5B (setting [2]) was no more than 500 nM. Moreover, the EC50 in experiment [1] (setting [3]) was less than 1000 nM.

Consider `CNC(=O)c1c(-c2ccncc2)oc2ccc(F)cc12` [Example 96, 5-Fluoro-2-pyridin-4-yl-benzofuran-3-carboxylic acid methylamide], for which the IC50 on HCV NS5B (HCV NS5B RdRp, BB7 genotype 1b) fell in the range of 500 to 5000 nM. Moreover, the EC50 in experiment [1] (setting [8]) was greater than 30000 nM.

For `CNC(=O)c1c(-c2ccc(F)cc2)oc2cc(N(C)S(C)(=O)=O)c(OC(F)F)cc12` [Example 298, 5-Difluoromethoxy-2-(4-fluoro-phenyl)-6-(methanesulfonyl-methyl-amino)-benzofuran-3-carboxylic acid methylamide], the IC50 on HCV NS5B (setting [6]) is no more than 500 nM. Moreover, the EC50 in experiment [1] (setting [3]) is less than 1000 nM.

Turning to `CNC(=O)c1c(-c2ccc(F)cc2)oc2cc(-c3cncnc3)c(OC(C)C)cc12` [Example 147, 2-(4-Fluoro-phenyl)-5-isopropoxy-6-pyrimidin-5-y1-benzofuran-3-carboxylic acid mehtylamide], the IC50 at HCV NS5B (HCV NS5B RdRp, BB7 genotype 1b) was no more than 500 nM. For the same molecule, the EC50 in experiment [1] (setting [8]) was less than 10000 nM.

For `CNC(=O)c1c(-c2ccc(F)cc2)oc2cc(-c3nccs3)c(OC(C)C)cc12` [Example 219, 2-(4-Fluoro-phenyl)-5-isopropoxy-6-thiazol-2-yl-benzofuran-3-carboxylic acid methylamide], the IC50 at HCV NS5B (setting [7]) was no more than 500 nM. Further, the EC50 in experiment [1] (HCV replicon, range of EC50) was less than 10000 nM.

As to `CNC(=O)c1c(-c2ccc(F)cc2)oc2cc(N(C)S(C)(=O)=O)c(OCc3nnnn3C)cc12` [Example 371, 2-(4-Fluoro-phenyl)-6-(methanesulfonyl-methyl-amino)-5-(1-methyl-1H-tetrazol-5-ylmethoxy)-benzofuran-3-carboxylic acid methylamide], the IC50 on HCV NS5B (setting [2]) was no more than 500 nM. In addition, the EC50 in experiment [1] (setting [3]) is less than 1000 nM.

Consider `CNC(=O)c1c(-c2ccc(F)cc2)oc2cc(C(C)(C)O)c(OC)cc12` [Example 49, 2-(4-Fluoro-phenyl)-6-(1-hydroxy-1-methyl-ethyl)-5-methoxy-benzofuran-3-carboxylic acid methylamide], for which the IC50 on HCV NS5B (setting [4]) is no more than 500 nM. In addition, the EC50 in experiment [1] (setting [5]) is less than 1000 nM.

Take `CNC(=O)c1c(-c2ccc(F)cc2)oc2cc(-c3ccncc3)c(OC(C)C)cc12` [Example 177, 2-(4-Fluoro-phenyl)-5-isopropoxy-6-pyridin-4-yl-benzofuran-3-carboxylic acid methylamide]: on HCV NS5B (setting [7]), the IC50 was no more than 500 nM. Further, the EC50 in experiment [1] (HCV replicon, range of EC50) was less than 10000 nM.

For the molecule `CNC(=O)c1c(-c2ccc(F)cc2)oc2cc(-c3cn[nH]c3)c(OC(C)C)cc12` [Example 239, 2-(4-Fluoro-phenyl)-5-isopropoxy-6-(1H-pyrazol-4-yl)-benzofuran-3-carboxylic acid methylamide], at HCV NS5B (setting [7]), the IC50 lay within 5000 to 30000 nM. In experiment [1] (HCV replicon, range of EC50), the EC50 was less than 10000 nM.

For `CNC(=O)c1c(-c2ccc(F)cc2)oc2cc(N(COC)S(C)(=O)=O)c(OCc3ccc(C#N)cc3)cc12` [Example 446, 5-(4-Cyano-benzyloxy)-2-(4-fluoro-phenyl)-6-(methanesulfonyl-methoxymethyl-amino)-benzofuran-3-carboxylic acid methylamide], on HCV NS5B (setting [9]), the IC50 is no more than 500 nM. The EC50 in experiment [1] (setting [3]) was less than 1000 nM.

On to `CNC(=O)c1c(-c2ccc(F)cc2)oc2cc(N)c(OCc3ccccc3)cc12` [Example 120, 6-Amino-5-benzyloxy-2-(4-fluoro-phenyl)-benzofuran-3-carboxylic acid methylamide], for which the IC50 on HCV NS5B (HCV NS5B RdRp, BB7 genotype 1b) is no more than 500 nM. For the same molecule, the EC50 in experiment [1] (setting [8]) was less than 10000 nM.

As for `CNC(=O)c1c(-c2ccc(F)cc2)oc2cc(N(COC)S(C)(=O)=O)c(O)cc12` [Example 444, 2-(4-Fluoro-phenyl)-5-hydroxy-6-(methanesulfonyl-methoxymethyl-amino)-benzofuran-3-carboxylic acid methylamide], the IC50 at HCV NS5B (setting [9]) was no more than 500 nM. Also, in experiment [1] (setting [3]), the EC50 was less than 10000 nM.

As to `CNC(=O)c1c(-c2ccc(F)cc2)oc2cc(N(C)S(C)(=O)=O)c(OCc3ccncc3)cc12` [Example 328, 2-(4-Fluoro-phenyl)-6-(methanesulfonyl-methyl-amino)-5-(pyridin-4-ylmethoxy)-benzofuran-3-carboxylic acid methylamide], the IC50 on HCV NS5B (setting [6]) is no more than 500 nM. The EC50 in experiment [1] (setting [3]) is less than 1000 nM.

Regarding `CNC(=O)c1c(-c2ccc(F)cc2)oc2cc(N3CCOCC3)c(OCc3nccn3Cc3ccccc3)cc12` [Example 216, 5-(1-Benzyl-1H-imidazol-2-ylmethoxy)-2-(4-fluoro-phenyl)-6-morpholin-4-yl-benzofuran-3-carboxylic acid methylamide], the IC50 at HCV NS5B (setting [7]) was no more than 500 nM. Further, the EC50 in experiment [1] (HCV replicon, range of EC50) was less than 1000 nM.

Take `CNC(=O)c1c(-c2ccc(Cl)c(F)c2)oc2ccc(OC)cc12` [Example 77, 2-(4-Chloro-3-fluoro-phenyl)-5-methoxy-benzofuran-3-carboxylic acid methylamide]: the IC50 on HCV NS5B (setting [4]) was no more than 500 nM. For the same molecule, in experiment [1] (setting [5]), the EC50 is less than 10000 nM.

Turning to `CNC(=O)c1c(-c2ccc(F)cc2)oc2cc(N(Cc3cc(C)on3)S(C)(=O)=O)c(OC(C)C)cc12` [Example 282, 2-(4-Fluoro-phenyl)-5-isopropoxy-6-[methanesulfonyl-(5-methyl-isoxazol-3-ylmethyl)-amino]-benzofuran-3-carboxylic acid methylamide], the IC50 on HCV NS5B (setting [6]) is no more than 500 nM. Further, the EC50 in experiment [1] (setting [3]) is less than 1000 nM.

`CNC(=O)c1c(-c2ccc(F)cc2)oc2cc(C3(C)NC(=O)NC3=O)c(OC)cc12` (stereo not shown) [Example 389, 2-(4-Fluoro-phenyl)-5-methoxy-6-(4-methyl-2,5-dioxo-imidazolidin-4-yl)-benzofuran-3-carboxylic acid methylamide]: on HCV NS5B (HCV NS5B polymerase, BB7 (genotype 1b), values given as range classes A-D), the IC50 was no more than 500 nM. In experiment [1] (HCV replicon assay, ranges of 50% effective concentration (EC50)), the EC50 is less than 10000 nM.

`CNC(=O)c1c(-c2ccc(F)cc2)oc2cc(N3CCOCC3)c(OCc3cscn3)cc12` [Example 35, 2-(4-Fluoro-phenyl)-6-morpholin-4-yI-5-(thiazol-4-ylmethoxy)-benzofuran-3-carboxylic acid methylamide]: the IC50 on HCV NS5B (setting [4]) is no more than 500 nM. For the same molecule, in experiment [1] (setting [5]), the EC50 is less than 1000 nM.

On to `CNC(=O)c1c(-c2ccc(F)cc2)oc2cc(N3CCOCC3)c(OCc3ccc(OC)cc3)cc12` [Example 30, 2-(4-Fluoro-phenyl)-5-(4-methoxy-benzyloxy)-6-morpholin-4-yl-benzofuran-3-carboxylic acid methylamide], for which the IC50 on HCV NS5B (setting [4]) is no more than 500 nM. Further, the EC50 in experiment [1] (setting [5]) is less than 1000 nM.

In the case of `CNC(=O)c1c(-c2ccccc2)oc2ccc(OCc3ccccc3-c3ccccc3)cc12` [Example 53, 5-(Biphenyl-2-ylmethoxy)-2-phenyl-benzofuran-3-carboxylic acid methylamide], at HCV NS5B (setting [4]), the IC50 fell in the range of 5000 to 30000 nM. Also, in experiment [1] (setting [5]), the EC50 is less than 30000 nM.
